Test results: PMC9823097, “Dysregulation of PRMT5 in chronic lymphocytic leukemia promotes progression with high risk of Richter’s transformation” (Nature Communications, 2023)

Columns and labels:
[1] = test system: HG3 cells; test: Cell growth curves over 12 days, HG3; format: cell-based; conditions: for anti-proliferative potency compared to PRT382: HG3
Method: (§1) Live cells/mL were counted on days 3, 6, 10, and 12. […] The split factor was calculated at indicated time points by dividing the counted cells/mL by 3E5. Cell growth was extrapolated over time by multiplying the subsequent cell count by the previous split factor. Cell growth is plotted as fold change relative to DMSO-treated cells.

[2] = test system: Mec-1 cells; test: Cell growth curves over 12 days, Mec-1; format: cell-based; conditions: for anti-proliferative potency compared to PRT382: Mec-1
Method: as §1

Nc1ncnc2c1ccn2[C@@H]1O[C@H]([C@H](O)c2ccccc2)[C@@H](O)[C@H]1O [LLY-283]
Rep 1 Live Cells [Fold Change] ([1]; HG3, 1 nM, day 0): 1 Fold Change
Rep 2 Live Cells [Fold Change] ([1]; HG3, 1 nM, day 0): 1 Fold Change
Rep 1 Live Cells [Fold Change] ([1]; HG3, 1 nM, day 3): 6.4 Fold Change
Rep 2 Live Cells [Fold Change] ([1]; HG3, 1 nM, day 3): 6.4 Fold Change
Rep 1 Live Cells [Fold Change] ([1]; HG3, 1 nM, day 6): 45.44 Fold Change
Rep 2 Live Cells [Fold Change] ([1]; HG3, 1 nM, day 6): 39.4667 Fold Change
Rep 1 Live Cells [Fold Change] ([1]; HG3, 1 nM, day 10): 270.368 Fold Change
Rep 2 Live Cells [Fold Change] ([1]; HG3, 1 nM, day 10): 299.947 Fold Change
Rep 1 Live Cells [Fold Change] ([1]; HG3, 1 nM, day 12): 973.325 Fold Change
Rep 2 Live Cells [Fold Change] ([1]; HG3, 1 nM, day 12): 1379.76 Fold Change
Rep 1 Live Cells [Fold Change] ([1]; HG3, 10 nM, day 0): 1 Fold Change
Rep 2 Live Cells [Fold Change] ([1]; HG3, 10 nM, day 0): 1 Fold Change
Rep 1 Live Cells [Fold Change] ([1]; HG3, 10 nM, day 3): 6.167 Fold Change
Rep 2 Live Cells [Fold Change] ([1]; HG3, 10 nM, day 3): 6.2 Fold Change
Rep 1 Live Cells [Fold Change] ([1]; HG3, 10 nM, day 6): 34.3278 Fold Change
Rep 2 Live Cells [Fold Change] ([1]; HG3, 10 nM, day 6): 39.4733 Fold Change
Rep 1 Live Cells [Fold Change] ([1]; HG3, 10 nM, day 10): 260.891 Fold Change
Rep 2 Live Cells [Fold Change] ([1]; HG3, 10 nM, day 10): 335.523 Fold Change
Rep 1 Live Cells [Fold Change] ([1]; HG3, 10 nM, day 12): 755.715 Fold Change
Rep 2 Live Cells [Fold Change] ([1]; HG3, 10 nM, day 12): 1174.33 Fold Change
Rep 1 Live Cells [Fold Change] ([1]; HG3, 100 nM, day 0): 1 Fold Change
Rep 2 Live Cells [Fold Change] ([1]; HG3, 100 nM, day 0): 1 Fold Change
Rep 1 Live Cells [Fold Change] ([1]; HG3, 100 nM, day 3): 5.133 Fold Change
Rep 2 Live Cells [Fold Change] ([1]; HG3, 100 nM, day 3): 5.6 Fold Change
Rep 1 Live Cells [Fold Change] ([1]; HG3, 100 nM, day 6): 5.048 Fold Change
Rep 2 Live Cells [Fold Change] ([1]; HG3, 100 nM, day 6): 7.691 Fold Change
Rep 1 Live Cells [Fold Change] ([1]; HG3, 100 nM, day 10): 6.991 Fold Change
Rep 2 Live Cells [Fold Change] ([1]; HG3, 100 nM, day 10): 12.0359 Fold Change
Rep 1 Live Cells [Fold Change] ([1]; HG3, 100 nM, day 12): 6.651 Fold Change
Rep 2 Live Cells [Fold Change] ([1]; HG3, 100 nM, day 12): 12.2598 Fold Change
Rep 1 Live Cells [Fold Change] ([1]; HG3, 1 µM, day 0): 1 Fold Change
Rep 2 Live Cells [Fold Change] ([1]; HG3, 1 µM, day 0): 1 Fold Change
Rep 1 Live Cells [Fold Change] ([1]; HG3, 1 µM, day 3): 4.533 Fold Change
Rep 2 Live Cells [Fold Change] ([1]; HG3, 1 µM, day 3): 5.967 Fold Change
Rep 1 Live Cells [Fold Change] ([1]; HG3, 1 µM, day 6): 3.083 Fold Change
Rep 2 Live Cells [Fold Change] ([1]; HG3, 1 µM, day 6): 6.961 Fold Change
Rep 1 Live Cells [Fold Change] ([1]; HG3, 1 µM, day 10): 2.4 Fold Change
Rep 2 Live Cells [Fold Change] ([1]; HG3, 1 µM, day 10): 7.031 Fold Change
Rep 1 Live Cells [Fold Change] ([1]; HG3, 1 µM, day 12): 1.832 Fold Change
Rep 2 Live Cells [Fold Change] ([1]; HG3, 1 µM, day 12): 4.873 Fold Change
anti-proliferative potency compared to PRT382 ([1]; high doses (1µM)): similar
anti-proliferative potency compared to PRT382 ([1]; lower doses (10nM, 100nM)): more potent
Rep 1 Live Cells [Fold Change] ([2]; Mec-1, 1 nM, day 0): 1 Fold Change
Rep 2 Live Cells [Fold Change] ([2]; Mec-1, 1 nM, day 0): 1 Fold Change
Rep 1 Live Cells [Fold Change] ([2]; Mec-1, 1 nM, day 3): 7.4 Fold Change
Rep 2 Live Cells [Fold Change] ([2]; Mec-1, 1 nM, day 3): 6.83 Fold Change
Rep 1 Live Cells [Fold Change] ([2]; Mec-1, 1 nM, day 6): 50.6 Fold Change
Rep 2 Live Cells [Fold Change] ([2]; Mec-1, 1 nM, day 6): 41.9 Fold Change
Rep 1 Live Cells [Fold Change] ([2]; Mec-1, 1 nM, day 10): 397 Fold Change
Rep 2 Live Cells [Fold Change] ([2]; Mec-1, 1 nM, day 10): 446 Fold Change
Rep 1 Live Cells [Fold Change] ([2]; Mec-1, 1 nM, day 12): 1480 Fold Change
Rep 2 Live Cells [Fold Change] ([2]; Mec-1, 1 nM, day 12): 1580 Fold Change
Rep 1 Live Cells [Fold Change] ([2]; Mec-1, 10 nM, day 0): 1 Fold Change
Rep 2 Live Cells [Fold Change] ([2]; Mec-1, 10 nM, day 0): 1 Fold Change
Rep 1 Live Cells [Fold Change] ([2]; Mec-1, 10 nM, day 3): 6.77 Fold Change
Rep 2 Live Cells [Fold Change] ([2]; Mec-1, 10 nM, day 3): 6.33 Fold Change
Rep 1 Live Cells [Fold Change] ([2]; Mec-1, 10 nM, day 6): 30.7 Fold Change
Rep 2 Live Cells [Fold Change] ([2]; Mec-1, 10 nM, day 6): 34 Fold Change
Rep 1 Live Cells [Fold Change] ([2]; Mec-1, 10 nM, day 10): 156 Fold Change
Rep 2 Live Cells [Fold Change] ([2]; Mec-1, 10 nM, day 10): 260 Fold Change
Rep 1 Live Cells [Fold Change] ([2]; Mec-1, 10 nM, day 12): 568 Fold Change
Rep 2 Live Cells [Fold Change] ([2]; Mec-1, 10 nM, day 12): 278 Fold Change
Rep 1 Live Cells [Fold Change] ([2]; Mec-1, 100 nM, day 0): 1 Fold Change
Rep 2 Live Cells [Fold Change] ([2]; Mec-1, 100 nM, day 0): 1 Fold Change
Rep 1 Live Cells [Fold Change] ([2]; Mec-1, 100 nM, day 3): 4.6 Fold Change
Rep 2 Live Cells [Fold Change] ([2]; Mec-1, 100 nM, day 3): 4.47 Fold Change
Rep 1 Live Cells [Fold Change] ([2]; Mec-1, 100 nM, day 6): 6.46 Fold Change
Rep 2 Live Cells [Fold Change] ([2]; Mec-1, 100 nM, day 6): 5.94 Fold Change
Rep 1 Live Cells [Fold Change] ([2]; Mec-1, 100 nM, day 10): 4.1 Fold Change
Rep 2 Live Cells [Fold Change] ([2]; Mec-1, 100 nM, day 10): 4.16 Fold Change
Rep 1 Live Cells [Fold Change] ([2]; Mec-1, 100 nM, day 12): 2.4 Fold Change
Rep 2 Live Cells [Fold Change] ([2]; Mec-1, 100 nM, day 12): 2.8 Fold Change
Rep 1 Live Cells [Fold Change] ([2]; Mec-1, 1 µM, day 0): 1 Fold Change
Rep 2 Live Cells [Fold Change] ([2]; Mec-1, 1 µM, day 0): 1 Fold Change
Rep 1 Live Cells [Fold Change] ([2]; Mec-1, 1 µM, day 3): 3.67 Fold Change
Rep 2 Live Cells [Fold Change] ([2]; Mec-1, 1 µM, day 3): 4.57 Fold Change
Rep 1 Live Cells [Fold Change] ([2]; Mec-1, 1 µM, day 6): 4.12 Fold Change
Rep 2 Live Cells [Fold Change] ([2]; Mec-1, 1 µM, day 6): 5.92 Fold Change
Rep 1 Live Cells [Fold Change] ([2]; Mec-1, 1 µM, day 10): 2.43 Fold Change
Rep 2 Live Cells [Fold Change] ([2]; Mec-1, 1 µM, day 10): 2.13 Fold Change
Rep 1 Live Cells [Fold Change] ([2]; Mec-1, 1 µM, day 12): 1.89 Fold Change
Rep 2 Live Cells [Fold Change] ([2]; Mec-1, 1 µM, day 12): 1.46 Fold Change
anti-proliferative potency compared to PRT382 ([2]; high doses (1µM)): similar
anti-proliferative potency compared to PRT382 ([2]; lower doses (10nM, 100nM)): more potent
